The nature of test [1]: Inhibition of Plasmodium falciparum HGXPRT.
Test [2] addresses T1, Hypoxanthine-guanine phosphoribosyltransferase (Homo sapiens, UniProt P00492).
T1 sequence (P00492 whole entry): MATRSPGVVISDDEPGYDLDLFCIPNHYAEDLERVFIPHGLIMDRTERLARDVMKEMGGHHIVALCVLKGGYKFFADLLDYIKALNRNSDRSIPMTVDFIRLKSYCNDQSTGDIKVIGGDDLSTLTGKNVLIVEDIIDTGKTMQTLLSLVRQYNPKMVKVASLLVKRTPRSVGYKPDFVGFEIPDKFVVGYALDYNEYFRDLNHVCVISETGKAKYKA
As to the kind of experiment: Inhibition of human HGPRT.

Test [3] can be described thus: Inhibition of Plasmodium vivax HGPRT.

Each structure is given as a SMILES string.

With `O=P(O)(O)CCCCCn1cnc2c(O)ncnc21`, the values for the Ki in test [1] and in test [2] were 21 µM and more than 100 µM, respectively.
On to `O=c1[nH]cnc2c1ncn2CCCCCCP(=O)(O)O`, for which the Ki in test [1] came to 97 µM; in test [2], 77 µM.
In the case of `O=c1[nH]cnc2c1ncn2COCCP(=O)(O)O`, the Ki in test [1] is 25 µM; in test [2] it was 56 µM; in test [3] it was 30 µM.
On to `O=c1[nH]cnc2c1ncn2CCCCCCCP(=O)(O)O`, for which the Ki in test [1], in test [2] and in test [3] was more than 100 µM each time.
Consider `Nc1nc2c(ncn2CCCP(=O)(O)O)c(=O)[nH]1`, for which the Ki in test [1], in test [2] and in test [3] was more than 100 µM in each case.
As to `Nc1nc(O)c2ncn(COCCCCP(=O)(O)O)c2n1`, the Ki in test [1] was 200 µM; in test [2] it was 0.4 µM; in test [3], more than 100 µM.
On to `Nc1nc(O)c2ncn(CCCCCCCP(=O)(O)O)c2n1`, for which the Ki in test [1] was 10 µM; in test [2] it was 5 µM.
Consider `Nc1nc(O)c2ncn(CCCCCP(=O)(O)O)c2n1`, for which the Ki is 2 µM in test [1], 0.5 µM in test [2] and 6 µM in test [3].
`Nc1nc(O)c2ncn(COCCP(=O)(O)O)c2n1`: the values for the Ki in test [1], in test [2] and in test [3] were 5 µM, 31 µM and 24 µM, respectively.
On the same counts, the results for `Nc1nc2c(ncn2CCP(=O)(O)O)c(=O)[nH]1` are more than 100 µM, more than 100 µM and more than 100 µM.
On the same counts, the results for `Nc1nc2c(ncn2CP(=O)(O)O)c(=O)[nH]1` are more than 100 µM, more than 100 µM and more than 100 µM.
Consider `O=c1[nH]cnc2c1ncn2CCCCP(=O)(O)O`, for which the Ki in test [1], in test [2] and in test [3] was more than 100 µM each time.
Regarding `O=c1[nH]cnc2c1ncn2CCP(=O)(O)O`, the Ki is 2.2 µM in test [1], 3.4 µM in test [2] and more than 100 µM in test [3].
Consider `Nc1nc2c(ncn2COCCCP(=O)(O)O)c(=O)[nH]1`, for which the results for the Ki in test [1], in test [2] and in test [3] were 6.7 µM, 3 µM and 1 µM, respectively.
As to `O=c1[nH]cnc2c1ncn2COCCCCP(=O)(O)O`, the Ki in test [1] came out at 29 µM; in test [2], 28 µM.
Turning to `O=c1[nH]cnc2c1ncn2CP(=O)(O)O`, the Ki in test [1] is more than 100 µM; in test [2], 1.9 µM; in test [3] it was more than 100 µM.
For the compound `O=c1[nH]cnc2c1ncn2CCCP(=O)(O)O`, the Ki in test [1], in test [2] and in test [3] was more than 100 µM throughout.
Turning to `Nc1nc(O)c2ncn(CCCCP(=O)(O)O)c2n1`, the Ki was more than 100 µM in test [1], 21 µM in test [2] and more than 100 µM in test [3].
Consider `Nc1nc2c(ncn2CCCCCCP(=O)(O)O)c(=O)[nH]1`, for which the Ki was more than 100 µM in test [1], 0.5 µM in test [2] and more than 100 µM in test [3].

For the origin of these results see ChEMBL document CHEMBL1926609, “Synthesis of 9-phosphonoalkyl and 9-phosphonoalkoxyalkyl purines: evaluation of their ability to act as inhibitors of Plasmodium falciparum, Plasmodium vivax and human hypoxanthine-guanine-(xanthine) phosphoribosyltransferases” (Bioorg Med Chem, 2012).
